Laboratory results: the NIST ThermoML archive (doi:10.1016/j.jct.2009.01.006)
Numbers after ± are expanded uncertainties.

Assays:
[1] = 303.15 K; for speed of sound: Linear variable-path acoustic interferometer
[2] = refractive index (Na D-line) (dimensionless); details: 298.15 K; 101.33 kPa; Liquid; Standard Abbe refractometry
[3] = φn = volume fraction of the nth substance listed; details: 303.15 K, 101 kPa, Liquid; for speed of sound: Linear variable-path acoustic interferometer
[4] = xn = mol fraction of the nth substance listed; details: 303.15 K, 101 kPa, Liquid, Direct dilatometry

CC(=O)CC(C)C [4-methylpentan-2-one]
[1], Liquid
Details | mass density [kg/m3] | speed of sound [m/s]
101 kPa | 791.24 ± 5.2 | 1168 ± 2
101.33 kPa | 791.25 ± 5.2 | 1172 ± 2

Details | refractive index
[2] | 1.3935 ± 0.0008

CCC(=O)CC [pentan-3-one]
[1], Liquid
Details | mass density [kg/m3] | speed of sound [m/s]
101 kPa | 804.57 ± 5.2 | 1198 ± 2
101.33 kPa | 804.62 ± 5.2 | 1201 ± 2

Details | refractive index
[2] | 1.3902 ± 0.0008

CN1CCCC1=O [N-methylpyrrolidone] + CCC(C)=O
Details | speed of sound [m/s]
[3], φ1 = 1 | 1552 ± 2

CCC(=O)CC [pentan-3-one] + CN1CCCC1=O
Details | excess molar volume [m3/mol] | mass density [kg/m3] | speed of sound [m/s]
[3], φ2 = 0 | – | 804.57 ± 5.2 | 1198 ± 2
[3], φ2 = 0.1401 | – | 837.52 ± 5.2 | 1230 ± 2
[3], φ2 = 0.2265 | – | 857.08 ± 5.2 | 1252 ± 2
[3], φ2 = 0.3711 | – | 889.22 ± 5.2 | 1297 ± 2
[3], φ2 = 0.423 | – | 900.7 ± 5.2 | 1316 ± 2
[3], φ2 = 0.5121 | – | 920.45 ± 5.2 | 1347 ± 2
[3], φ2 = 0.5666 | – | 932.49 ± 5.2 | 1365 ± 2
[3], φ2 = 0.6937 | – | 960.46 ± 5.2 | 1415 ± 2
[3], φ2 = 0.79 | – | 981.3 ± 5.2 | 1452 ± 2
[3], φ2 = 0.904 | – | 1004.83 ± 5.3 | 1502 ± 2
[4], x2 = 0.0634 | -1.55e-07 ± 7e-09 | – | –
[4], x2 = 0.1526 | -2.89e-07 ± 7e-09 | – | –
[4], x2 = 0.2446 | -3.57e-07 ± 6e-09 | – | –
[4], x2 = 0.3948 | -3.98e-07 ± 6e-09 | – | –
[4], x2 = 0.4476 | -4.12e-07 ± 6e-09 | – | –
[4], x2 = 0.5371 | -4.2e-07 ± 6e-09 | – | –
[4], x2 = 0.591 | -4.22e-07 ± 6e-09 | – | –
[4], x2 = 0.7146 | -4.13e-07 ± 6e-09 | – | –
[4], x2 = 0.7962 | -3.45e-07 ± 7e-09 | – | –
[4], x2 = 0.9124 | -2.31e-07 ± 7e-09 | – | –
[4], x2 = 0.9626 | -1.06e-07 ± 7e-09 | – | –

CCCC(C)=O [pentan-2-one]
[1], Liquid
Details | mass density [kg/m3] | speed of sound [m/s]
101 kPa | 796.54 ± 5.2 | 1202 ± 2
101.33 kPa | 796.58 ± 5.2 | 1197 ± 2

Details | refractive index
[2] | 1.3883 ± 0.0008

CN1CCCC1=O [N-methylpyrrolidone] + CC(=O)CC(C)C
[3], φ1 = 1
Details | mass density [kg/m3] | speed of sound [m/s]
– | 1023.4 ± 5.3 | 1552 ± 2

CCC(C)=O [butanone] + CN1CCCC1=O
Details | excess molar volume [m3/mol] | speed of sound [m/s]
[3], φ2 = 0 | – | 1167 ± 2
[3], φ2 = 0.1517 | – | 1214 ± 2
[3], φ2 = 0.2207 | – | 1245 ± 2
[3], φ2 = 0.2988 | – | 1282 ± 2
[3], φ2 = 0.426 | – | 1345 ± 2
[3], φ2 = 0.5205 | – | 1391 ± 2
[3], φ2 = 0.5952 | – | 1421 ± 2
[3], φ2 = 0.7078 | – | 1456 ± 2
[3], φ2 = 0.8167 | – | 1483 ± 2
[3], φ2 = 0.9184 | – | 1519 ± 2
[4], x2 = 0.0705 | -7.1e-08 ± 6e-09 | –
[4], x2 = 0.1436 | -1.42e-07 ± 6e-09 | –
[4], x2 = 0.2097 | -1.89e-07 ± 6e-09 | –
[4], x2 = 0.2854 | -2.44e-07 ± 6e-09 | –
[4], x2 = 0.4102 | -2.93e-07 ± 6e-09 | –
[4], x2 = 0.5043 | -3.02e-07 ± 6e-09 | –
[4], x2 = 0.5795 | -2.96e-07 ± 6e-09 | –
[4], x2 = 0.6942 | -2.56e-07 ± 6e-09 | –
[4], x2 = 0.8068 | -1.89e-07 ± 6e-09 | –
[4], x2 = 0.9134 | -9.8e-08 ± 6e-09 | –
[4], x2 = 0.9545 | -5.1e-08 ± 7e-09 | –

CN1CCCC1=O [N-methylpyrrolidone] + CCC(=O)CC
[3], φ1 = 1
Details | mass density [kg/m3] | speed of sound [m/s]
– | 1023.4 ± 5.3 | 1552 ± 2

O=C1CCCCC1 [cyclohexanone]
[1], Liquid
Details | mass density [kg/m3] | speed of sound [m/s]
101 kPa | 937.58 ± 5.2 | 1386 ± 2
101.33 kPa | 937.55 ± 5.2 | 1385 ± 2

Details | refractive index
[2] | 1.4501 ± 0.0007

CC(=O)CC(C)C [4-methylpentan-2-one] + CN1CCCC1=O
Details | excess molar volume [m3/mol] | mass density [kg/m3] | speed of sound [m/s]
[3], φ2 = 0 | – | 791.24 ± 5.2 | 1168 ± 2
[3], φ2 = 0.0946 | – | 814.41 ± 5.2 | 1198 ± 2
[3], φ2 = 0.1879 | – | 836.88 ± 5.2 | 1232 ± 2
[3], φ2 = 0.2615 | – | 854.5 ± 5.2 | 1259 ± 2
[3], φ2 = 0.3961 | – | 886.44 ± 5.2 | 1310 ± 2
[3], φ2 = 0.4444 | – | 897.82 ± 5.2 | 1332 ± 2
[3], φ2 = 0.6087 | – | 936.2 ± 5.2 | 1385 ± 2
[3], φ2 = 0.7236 | – | 962.58 ± 5.2 | 1422 ± 2
[3], φ2 = 0.8232 | – | 985.02 ± 5.2 | 1456 ± 2
[3], φ2 = 0.8989 | – | 1001.74 ± 5.3 | 1491 ± 2
[4], x2 = 0.0682 | -1.09e-07 ± 7e-09 | – | –
[4], x2 = 0.1202 | -1.82e-07 ± 7e-09 | – | –
[4], x2 = 0.2327 | -2.88e-07 ± 7e-09 | – | –
[4], x2 = 0.3164 | -3.49e-07 ± 7e-09 | – | –
[4], x2 = 0.3727 | -3.78e-07 ± 6e-09 | – | –
[4], x2 = 0.4616 | -4.11e-07 ± 6e-09 | – | –
[4], x2 = 0.5111 | -4.22e-07 ± 6e-09 | – | –
[4], x2 = 0.5711 | -4.24e-07 ± 6e-09 | – | –
[4], x2 = 0.6703 | -4.15e-07 ± 6e-09 | – | –
[4], x2 = 0.7739 | -3.58e-07 ± 7e-09 | – | –
[4], x2 = 0.8589 | -2.73e-07 ± 7e-09 | – | –
[4], x2 = 0.9208 | -1.79e-07 ± 7e-09 | – | –
[4], x2 = 0.9675 | -9.3e-08 ± 7e-09 | – | –

CN1CCCC1=O [N-methylpyrrolidone] + CCCC(C)=O
[3], φ1 = 1
Details | mass density [kg/m3] | speed of sound [m/s]
– | 1023.4 ± 5.3 | 1552 ± 2

CN1CCCC1=O [N-methylpyrrolidone]
[1]
Details | mass density, 101 kPa [kg/m3] | mass density, 101.33 kPa [kg/m3] | speed of sound, 101.33 kPa [m/s]
Crystal | – | 1023.4 ± 5.3 | –
Liquid | 1023.4 ± 5.3 | – | 1552 ± 2

Details | refractive index
[2] | 1.4674 ± 0.0008

CCC(C)=O [butanone]
[1], Liquid
Details | mass density [kg/m3] | speed of sound [m/s]
101 kPa | 794.51 ± 5.2 | 1167 ± 2
101.33 kPa | 794.5 ± 5.2 | 1168 ± 2

Details | refractive index
[2] | 1.377 ± 0.0008

O=C1CCCCC1 [cyclohexanone] + CN1CCCC1=O
Details | excess molar volume [m3/mol] | mass density [kg/m3] | speed of sound [m/s]
[3], φ2 = 0 | – | 937.58 ± 5.2 | 1386 ± 2
[3], φ2 = 0.1156 | – | 947.92 ± 5.2 | 1392 ± 2
[3], φ2 = 0.2076 | – | 954.74 ± 5.2 | 1402 ± 2
[3], φ2 = 0.3053 | – | 962.9 ± 5.2 | 1415 ± 2
[3], φ2 = 0.4073 | – | 971.45 ± 5.2 | 1426 ± 2
[3], φ2 = 0.4984 | – | 979.17 ± 5.2 | 1438 ± 2
[3], φ2 = 0.5729 | – | 985.58 ± 5.2 | 1454 ± 2
[3], φ2 = 0.7078 | – | 997.22 ± 5.2 | 1480 ± 2
[3], φ2 = 0.7856 | – | 1004.04 ± 5.3 | 1496 ± 2
[3], φ2 = 0.9104 | – | 1015.17 ± 5.3 | 1522 ± 2
[4], x2 = 0.0657 | 2.7e-08 ± 6e-09 | – | –
[4], x2 = 0.1238 | 4.6e-08 ± 6e-09 | – | –
[4], x2 = 0.2207 | 7.1e-08 ± 6e-09 | – | –
[4], x2 = 0.3217 | 9e-08 ± 6e-09 | – | –
[4], x2 = 0.4262 | 1.13e-07 ± 6e-09 | – | –
[4], x2 = 0.5178 | 1.21e-07 ± 6e-09 | – | –
[4], x2 = 0.5918 | 1.18e-07 ± 6e-09 | – | –
[4], x2 = 0.7236 | 1.09e-07 ± 6e-09 | – | –
[4], x2 = 0.7984 | 9.4e-08 ± 6e-09 | – | –
[4], x2 = 0.9166 | 5.2e-08 ± 6e-09 | – | –
[4], x2 = 0.9604 | 3.2e-08 ± 6e-09 | – | –

CN1CCCC1=O [N-methylpyrrolidone] + O=C1CCCCC1
[3], φ1 = 1
Details | mass density [kg/m3] | speed of sound [m/s]
– | 1023.4 ± 5.3 | 1552 ± 2

CCCC(C)=O [pentan-2-one] + CN1CCCC1=O
Details | excess molar volume [m3/mol] | mass density [kg/m3] | speed of sound [m/s]
[3], φ2 = 0 | – | 796.54 ± 5.2 | 1202 ± 2
[3], φ2 = 0.1165 | – | 824.33 ± 5.2 | 1231 ± 2
[3], φ2 = 0.193 | – | 842.58 ± 5.2 | 1254 ± 2
[3], φ2 = 0.3417 | – | 877.77 ± 5.2 | 1308 ± 2
[3], φ2 = 0.4382 | – | 900.32 ± 5.2 | 1345 ± 2
[3], φ2 = 0.493 | – | 913.03 ± 5.2 | 1367 ± 2
[3], φ2 = 0.6094 | – | 939.74 ± 5.2 | 1403 ± 2
[3], φ2 = 0.7189 | – | 964.15 ± 5.2 | 1429 ± 2
[3], φ2 = 0.8475 | – | 991.98 ± 5.3 | 1467 ± 2
[3], φ2 = 0.9297 | – | 1009.18 ± 5.3 | 1498 ± 2
[4], x2 = 0.0776 | -1.11e-07 ± 7e-09 | – | –
[4], x2 = 0.1284 | -1.74e-07 ± 7e-09 | – | –
[4], x2 = 0.2108 | -2.81e-07 ± 7e-09 | – | –
[4], x2 = 0.2852 | -3.59e-07 ± 7e-09 | – | –
[4], x2 = 0.3669 | -4.39e-07 ± 7e-09 | – | –
[4], x2 = 0.4655 | -4.98e-07 ± 7e-09 | – | –
[4], x2 = 0.5205 | -5.21e-07 ± 7e-09 | – | –
[4], x2 = 0.5851 | -5.28e-07 ± 7e-09 | – | –
[4], x2 = 0.6353 | -5.29e-07 ± 7e-09 | – | –
[4], x2 = 0.7406 | -4.68e-07 ± 7e-09 | – | –
[4], x2 = 0.8612 | -3.15e-07 ± 7e-09 | – | –
[4], x2 = 0.9366 | -1.67e-07 ± 7e-09 | – | –
[4], x2 = 0.9769 | -7.6e-08 ± 7e-09 | – | –
